Data reported in US20160159814A1, “GLYCINE TRANSPORTER INHIBITOR” (TAISHO PHARMACEUTICAL CO., LTD., priority 2013, published 2016).

These molecules were tested against T1, human type 1 glycine transporter (GlyT1) (Homo sapiens, UniProt P48067) (assay: Glycine uptake inhibition experiment ([3H] glycine uptake in T98G cells expressing GlyT1)). Conditions: not given.
T1 construct: T98G cells (glioma cells) expressing human type 1 glycine transporter (GlyT1) were used; endogenous in cells; host or cells: T98G cells (human glioma cells)
T1 sequence (P48067 1-706): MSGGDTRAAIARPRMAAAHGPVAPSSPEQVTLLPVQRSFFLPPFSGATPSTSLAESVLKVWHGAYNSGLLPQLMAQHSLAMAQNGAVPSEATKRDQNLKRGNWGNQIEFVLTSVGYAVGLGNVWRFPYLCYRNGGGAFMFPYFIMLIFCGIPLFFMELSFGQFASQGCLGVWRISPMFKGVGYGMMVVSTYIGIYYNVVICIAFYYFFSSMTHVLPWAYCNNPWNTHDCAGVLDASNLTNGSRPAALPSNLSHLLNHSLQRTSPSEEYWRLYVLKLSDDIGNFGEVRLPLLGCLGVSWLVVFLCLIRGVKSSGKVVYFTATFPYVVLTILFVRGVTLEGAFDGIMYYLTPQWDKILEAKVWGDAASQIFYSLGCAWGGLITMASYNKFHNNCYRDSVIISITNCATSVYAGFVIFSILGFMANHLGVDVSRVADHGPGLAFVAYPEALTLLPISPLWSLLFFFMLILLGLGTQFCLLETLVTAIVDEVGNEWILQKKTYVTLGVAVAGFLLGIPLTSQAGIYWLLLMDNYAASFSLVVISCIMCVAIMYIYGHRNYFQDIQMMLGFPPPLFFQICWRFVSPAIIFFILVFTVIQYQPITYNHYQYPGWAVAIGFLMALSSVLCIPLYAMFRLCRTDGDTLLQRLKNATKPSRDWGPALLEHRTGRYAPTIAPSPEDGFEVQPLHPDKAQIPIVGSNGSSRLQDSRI
Format: cell-based
In short: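 T98G glioma cells expressing human GlyT1 were pretreated 10 min with compound in HEPES buffer pH 7.4 (0.2% BSA), then incubated with compound plus 250 nM final [3H]glycine for 15 min at room temperature. Intracellular radioactivity was counted after NaOH lysis; 10 μM ALX5407 defined non-specific uptake. IC50 came from 10^−9–10^−5 M curves.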

Row | Compound | IC50 [µM]
1 | COc1ncc(CN2C(=O)C(F)(F)c3c([C@H](C)O)cccc32)cc1Cl [Compound 222, 1-[(5-chloro-6-methoxypyridin-3-yl)methyl]-3,3-difluoro-4-[(1S)-1-hydroxyethyl)-1,3-dihydro-2H-indol-2-one] | 0.0086
2 | O=C1N(Cc2ccc(Cl)nc2)c2cccc(C(O)C(F)F)c2C1(F)F (single isomer, unassigned) [Compound 160, 1-[(6-chloropyridin-3-yl)methyl]-4-(2,2-difluoro-1-hydroxyethyl)-3,3-difluoro-1,3-dihydro-2H-indol-2-one] | 0.35
3 | O=C1N(Cc2cncc(Cl)c2)c2c(F)ccc(C(O)C(F)F)c2C1(F)F (stereo not drawn) [Compound 252, 1-[(5-chloropyridin-3-yl)methyl]-4-(2,2-difluoro-1-hydroxyethyl)-3,3,7-trifluoro-1,3-dihydro-2H-indol-2-one] | 0.046
4 | COc1ccc(CN2C(=O)C(F)(F)c3c([C@H](C)O)cccc32)cn1 [Compound 203, 3,3-difluoro-4-[(1S)-1-hydroxyethyl]-1-[(6-methoxypyridin-3-yl)methyl]-1,3-dihydro-2H-indol-2-one] | 0.031
5 | C[C@H](O)c1cccc2c1C(F)(F)C(=O)N2Cc1ccc(C(F)(F)F)nc1Cl [Compound 239, 1-{[2-chloro-6-(trifluoromethyl)pyridin-3-yl]methyl}-3,3-difluoro-4-[(1S)-1-hydroxyethyl]-1,3-dihydro-2H-indol-2-one] | 0.22

Now from value to molecule:

Row | IC50 [µM] | Compound
6 | 0.095 | CC(O)c1c(F)ccc2c1C(F)(F)C(=O)N2Cc1ccnc(C#N)c1 (single isomer, unassigned) [Compound 184, 4-{(3,3,5-trifluoro-4-(1-hydroxyethyl)-2-oxo-2,3-dihydro-1H-indol-1-yl]methyl}pyridine-2-carbonitrile]
7 | 0.04 | C[C@H](O)c1cccc2c1C(F)(F)C(=O)N2Cc1ncccc1C#N [Compound 213, 2-({3,3-difluoro-4-[(S)-1-hydroxyethyl]-2-oxo-2,3-dihydro-1-indol-1-yl}methyl)pyridine-3-carbonitrile]

Same assay, conditions: glycine uptake inhibition

Row | Compound | IC50 [µM]
8 | O=C1N(Cc2cncc(Cl)c2)c2ccc(F)c(C(O)C(F)(F)F)c2C1(F)F (single isomer, unassigned) [Compound 49, 1-[(5-chloropyridin-3-yl)methyl]-3,3,5-trifluoro-4-(2,2,2-trifluoro-1-hydroxyethyl)-1,3-dihydro-2H-indol-2-one] | 1.5
9 | O=C1N(Cc2cncc(Cl)c2)c2ccc(F)c(C(O)C(F)(F)F)c2C1(F)F (stereo not drawn) [Compound 48, 1-[(5-chloropyridin-3-yl)methyl]-3,3,5-trifluoro-4-(2,2,2-trifluoro-1-hydroxyethyl)-1,3-dihydro-2H-indol-2-one] | 0.085
10 | C[C@H](O)c1c(Cl)ccc2c1C(F)(F)C(=O)N2Cc1cncc(Cl)c1 [Compound 90, 5-chloro-1-[(5-chloropyridin-3-yl)methyl]-3,3-difluoro-4-[(1S)-1-hydroxyethyl]-1,3-dihydro-2H-indol-2-one] | 0.046
11 | C[C@H](O)c1cccc2c1C(F)(F)C(=O)N2Cc1cccc(C(F)(F)F)n1 [Compound 67, 3,3-difluoro-4-[(1S)-1-hydroxyethyl]-1-{[6-(trifluoromethyl)pyridin-2-yl]methyl}-1,3-dihydro-2H-indol-2-one] | 0.017
12 | CC(O)c1cccc2c1C(F)(F)C(=O)N2Cc1cncc(Cl)c1 (single isomer, unassigned) [Compound 7, 1-[(5-chloropyridin-3-yl)methyl]-3,3-difluoro-4-(1-hydroxyethyl)-1,3-dihydro-2H-indol-2-one] | 0.014
13 | O=C1N(Cc2nc3ccccc3[nH]c2=O)c2cccc([C@@H](O)C(F)(F)F)c2C1(F)F [Compound 140, 3-({3,3-difluoro-2-oxo-4-[(1R)-2,2,2-trifluoro-1-hydroxyethyl]-2,3-dihydro-1H-indol-1-yl}methyl) quinoxalin-2(1H)-one] | 0.033
14 | C[C@H](O)c1cccc2c1C(F)(F)C(=O)N2Cc1cncc(-n2nccn2)c1 [Compound 84, 3,3-difluoro-4-[(1S)-1-hydroxyethyl]-1-{[5-(2H-1,2,3-triazol-2-yl)pyridin-3-yl]methyl}-1,3-dihydro-2H-indol-2-one] | 0.035
15 | O=C1N(Cc2ccc(F)nc2)c2cccc(C(O)C(F)F)c2C1(F)F (single isomer, unassigned) [Compound 156, 4-(2,2-difluoro-1-hydroxyethyl)-3,3-difluoro-1-[(6-fluoropyridin-3-yl)methyl]-1,3-dihydro-2H-indol-2-one] | 0.11
16 | C[C@H](O)c1cccc2c1C(F)(F)C(=O)N2Cc1cnc2ccccc2n1 [Compound 83, 3,3-difluoro-4-[(1S)-1-hydroxyethyl]-1-(quinoxalin-2-ylmethyl)1,3-dihydro-2H-indol-2-one] | 0.03
17 | COc1ccc(CN2C(=O)C(F)(F)c3c([C@H](C)O)cccc32)nc1 [Compound 106, 3,3-difluoro-4-[(1S)-1-hydroxyethyl]-1-[(5-methoxypydin-2-yl)methyl]-1,3-dihydro-2H-indol-2-one] | 0.81
18 | C[C@H](O)c1cccc2c1C(F)(F)C(=O)N2Cc1cncc(-n2ccnn2)c1 [Compound 87, 3,3-difluoro-4-[(1S)-1-hydroxyethyl]-1-{[5-(1H-1,2,3-triazol-1-yl)pyridin-3-yl]methyl}-1,3-dihydro-2H-indol-2-one] | 1.5
19 | O=C1N(Cc2cccc(F)c2)c2cccc(C(O)C(F)F)c2C1(F)F (single isomer, unassigned) [Compound 158, 4-(2,2-difluoro-1-hydroxyethyl)-3,3-difluoro-1-(3-fluorobenzyl)-1,3-dihydro-2H-indol-2-one] | 0.016

Further lines, results first:

Row | IC50 [µM] | Compound
20 | 0.012 | COc1cc(CN2C(=O)C(F)(F)c3c([C@H](C)O)cccc32)ccn1 [Compound 124, 3,3-difluoro-4-[(1S)-1-hydroxyethyl]-1-[(2-methoxypyridin-4-yl)methyl]-1,3-dihydro-2H-indol-2-one]
21 | 0.0079 | O=C1N(Cc2cccc(Cl)n2)c2cccc(C(O)C(F)F)c2C1(F)F (single isomer, unassigned) [Compound 126, 1-[(6-chloropyridin-2-yl)methyl]-4-(2,2-difluoro-1-hydroxyethyl)-3,3-difluoro-1,3-dihydro-2H-indol-2-one]
22 | 3.3 | N#Cc1cccc(CN2C(=O)C(F)(F)c3c(C(O)C(F)(F)F)cccc32)n1 (single isomer, unassigned) [Compound 18, 6-{[3,3-difluoro-2-oxo-4-(2,2,2-trifluoro-1-hydroxyethyl)-2,3-dihydro-1H-indol-1-yl]methyl}pyridine-2-carbonitrile]
23 | 0.62 | C[C@@H](O)c1cccc2c1C(F)(F)C(=O)N2Cc1nc2ccccc2c(=O)n1C [Compound 39, 2-({3,3-difluoro-4-[(1R)-1-hydroxyethyl]-2-oxo-2,3-dihydro-1H-indol-1-yl}methyl)-3-methylquinazolin-4(3H)-one]
24 | 0.05 | C[C@H](O)c1cccc2c1C(F)(F)C(=O)N2Cc1ccnc(F)c1 [Compound 42, 3,3-difluoro-1-[(2-fluoropyridin-4-yl)methyl]-4-[(1S)-1-hydroxyethyl]-1,3-dihydro-2H-indol-2-one]
25 | 0.029 | C[C@H](O)c1cccc2c1C(F)(F)C(=O)N2Cc1nc2ccccc2c(=O)n1C [Compound 41, 2-({3,3-difluoro-4-[(1S)-1-hydroxyethyl]-2-oxo-2,3-dihydro-1H-indol-1-yl}methyl)-3-methylquinazolin-4(3H)-one]
26 | 0.023 | CC(O)c1cccc2c1C(F)(F)C(=O)N2Cc1ccnc(Cl)c1 (stereo not drawn) [Compound 27, 1-[(2-chloropyridin-4-yl)methyl]-3,3-difluoro-4-(1-hydroxyethyl)-1,3-dihydro-2H-indol-2-one]
27 | 0.4 | C[C@H](O)c1cccc2c1C(F)(F)C(=O)N2Cc1ccc(C(F)F)nc1 [Compound 130, 1-{[6-(difluoromethyl)pyridin-3-yl]methyl}-3,3-difluoro-4-[(1S)-1-hydroxyethyl]-1,3-dihydro-2H-indol-2-one]
28 | 0.043 | O=C1N(Cc2cc(Cl)ccn2)c2cccc([C@@H](O)C(F)(F)F)c2C1(F)F [Compound 145, 1-[(4-chloropyndin-2-yl)methyl]-3,3-difluoro-4-[(1R)-2,2,2-trifluoro-1-hydroxyethyl]-1,3-dihydro-2H-indol-2-one]
29 | 0.93 | C[C@H](O)c1cccc2c1C(F)(F)C(=O)N2Cc1ccc(C(F)F)cn1 [Compound 131, 1-{[5-(difluoromethyl)pyridin-2-yl]methyl)-3,3-difluoro-4-[(1S)-1-hydroxyethyl]-1,3-dihydro-2H-indol-2-one]

Same assay, conditions: table section whose head prints (μm)

Row | Compound | IC50 [µM]
30 | O=C1N(Cc2cc(C(F)(F)F)c(Cl)cn2)c2cccc(C(O)C(F)F)c2C1(F)F (single isomer, unassigned) [Compound 268, 1-{[5-chloro-4-(trifluoromethyl)pyridin-2-yl]methyl)-4-(2,2-difluoro-1-hydroxyethyl)-3,3-difluoro-1,3-dihydro-2H-indol-2-one] | 0.016
